Measured values from patent US7951403B2, “Method of making pharmaceutical multiparticulates” (Pfizer Inc., priority 2003, dated 2011).

Experiment: Azithromycin dihydrate crystallinity in molten carrier mixtures with varying water, by PXRD
Assay type: physicochemical
Experimental: Another way to determine the activity of volatile species in crystalline drug at the processing conditions is by measuring the change in the crystalline state of the drug as a function of the amount of volatile species present in the molten mixture. A series of blends of the crystalline drug, the carrier, and varying amounts of volatile species are prepared and placed into sealed containers. The containers are then heated to the processing temperature used to form the multiparticulates and held at this temperature for a period of time, such as 90 minutes. During this time, a sample of the container's atmosphere, i.e., the container's “headspace,” can be taken and the partial pressure of volatile species in the headspace can be measured using standard techniques, such as by gas chromatography. The containers are then cooled and the concentration of the desired crystalline form of the drug in each sample can be determined using standard techniques, as described below. The concentration of the desired crystalline form of the drug in the sample is then plotted versus the amount of volatile species included in the blend or the concentration of volatile species present in the headspace. […] The amount of the desired crystalline form of the drug in the samples and in multiparticulates can be determined using Powder X-Ray Diffraction (PXRD) analysis. In an exemplary procedure, PXRD analysis may be performed on a Bruker AXS D8 Advance diffractometer. In this analysis, samples of about 500 mg are packed in Lucite sample cups and the sample surface smoothed using a glass microscope slide to provide a consistently smooth sample surface that is level with the top of the sample cup. Samples are spun in the φ plane at a rate of 30 rpm to minimize crystal orientation effects. The X-ray source (S/B KCuα, λ=1.54 Å) is operated at a voltage of 45 kV and a current of 40 mA. Data for each sample are collected over a period of about 20 to 60 minutes in continuous detector scan mode at a scan speed of about 1 to 15 seconds/step and a step size of 0.02°/step. Diffractograms are collected over the 2θ range of 4° to 30°. The crystallinity of the test sample is determined by comparison with two or more calibration standards consisting of physical mixtures of crystalline drug and carrier. Each physical mixture is blended together 15 minutes on a Turbula mixer. Using the instrument software, the area under the diffractogram curve is integrated over the 2θ range using a linear baseline. This integration range includes as many drug-specific peaks as possible while excluding carrier-related peaks. A linear calibration curve of percent crystalline drug versus the area under the diffractogram curve is generated from the calibration standards. The crystallinity of the test sample is then determined using these calibration results and the area under the curve for the test sample. Results are reported as a mean percent drug crystallinity by crystal mass. The amount of water required to maintain the dihydrate form of azithromycin while forming multiparticulates by a melt-congeal process was determined as follows. The composition of the multiparticulates was 50 wt % azithromycin dihydrate, 46 wt % of the matrix excipient COMPRITOL 888 ATO (a mixture of 13 to 21 wt % glyceryl mono-behenate, 40 to 60 wt % glyceryl di-behenate, and about 35 wt % glyceryl tri-behenate from Gattefossé Corporation of Paramus, N.J.), and 4 wt % of the poloxamer dissolution enhancer PLURONIC F127 (polyoxyethylene-polyoxypropylene block copolymer, from BASF Corporation of Mt. Olive, N.J.). Mixtures of these materials containing varying amounts of water were prepared and analyzed by PXRD. To form each mixture, 100 g azithromycin dihydrate, 92 g of the COMPRITOL 888 ATO, and 8 g of the PLURONIC F127 were added to a water-jacketed stainless steel sealed vessel. Various amounts of water were added to each mixture to obtain varying water concentrations. […]

CC[C@H]1OC(=O)[C@H](C)[C@@H](O[C@H]2C[C@@](C)(OC)[C@@H](O)[C@H](C)O2)[C@H](C)[C@@H](O[C@@H]2O[C@H](C)C[C@H](N(C)C)[C@H]2O)[C@](C)(O)C[C@@H](C)CN(C)[C@H](C)[C@@H](O)[C@]1(C)O [Azithromycin Dihydrate, 9a-aza-9a-methyl-9-deoxo-9a-homoerythromycin A]
Azithromycin Dihydrate Crystallinity (Water in melt sample 0.35 wt %, same mixture, 90 min at 90° C.): 57 wt % | Azithromycin Dihydrate Crystallinity (Water in melt sample 0.45 wt %, same mixture, 90 min at 90° C.): 68 wt % | Azithromycin Dihydrate Crystallinity (Water in melt sample 1.88 wt %, same mixture, 90 min at 90° C.): 91 wt % | Azithromycin Dihydrate Crystallinity (Water in melt sample 2.22 wt %, same mixture, 90 min at 90° C.): 93 wt % | Azithromycin Dihydrate Crystallinity (Water in melt sample 3.08 wt %, 50/46/4 azithromycin dihydrate/COMPRITOL 888 ATO/PLURONIC F127, stirred 90 min at 90° C., sealed vessel): 95 wt % | water needed in the mixtures to maintain high levels of azithromycin dihydrate crystallinity in the melt (melt at 90° C., COMPRITOL 888 ATO/PLURONIC F127 carrier): at least 2.2 wt %
